Active and inactive are the calls of the source. The rule behind the calls is not given here.
How the values were obtained:
[1] = biological target: T1, 80S Ribosome (Homo sapiens) (UniProt P08865+P42677+P62753+P15880+P23396+P61247+P62701+P22090+P46782+P62081+P62241+P46781+P46783+P62280+P25398+P62277+P62263+P62841+P62244+P62249+P08708+P62269+P39019+P60866+P63220+P62266+P62847+P62851+P62854+P62979+P62857+P62273+P62861+P39023+P36578+P46777+Q02878+P18124+P62424+P62917+P32969+P27635+P62906+P62913+P30050+P26373+P40429+P50914+P61313+P18621+Q07020+Q02543+P84098+P46778+P35268+P62829+P62750+P83731+P61254+P61353+P46776+P46779+P47914+P62888+P62899+P62910+P49207+P42766+P18077+Q9Y3U8+P83881+P61927+P61513+P63173+P62891+P62945+P05388+P05386); experiment: Binding affinity to 40S ribosomal protein S7 in human Hela cells lysates assessed as protein enrichment by measuring normalized heavy/light ratio at by nano-LC-ESIMS/MS analysis; assay type: cell-free
[2] = biological target: T1, 80S Ribosome (Homo sapiens); experiment: Binding affinity to ribosomal protein S10 in human Hela cells lysates assessed as protein enrichment by Western blotting analysis; assay type: cell-free
Trypsin (Homo sapiens) = Trypsin (Homo sapiens) (UniProt P07477+P07478+P35030); experiment: Binding affinity to trypsin in human Hela cells lysates assessed as protein enrichment by measuring normalized heavy/light ratio at by nano-LC-ESIMS/MS analysis; assay type: cell-free
[3] = biological target: Stress-70 protein, mitochondrial (Homo sapiens) (UniProt P38646); experiment: Binding affinity to stress-70 protein in human Hela cells lysates assessed as protein enrichment by measuring normalized heavy/light ratio at by nano-LC-ESIMS/MS analysis; assay type: cell-free
[4] = biological target: Poly(rC)-binding protein 2 (Homo sapiens) (UniProt Q15366); experiment: Binding affinity to poly(rC)-binding protein 2 in human Hela cells lysates assessed as protein enrichment by measuring normalized heavy/light ratio at by nano-LC-ESIMS/MS analysis; assay type: cell-free
[5] = biological target: D-3-phosphoglycerate dehydrogenase (Homo sapiens) (UniProt O43175); experiment: Binding affinity to D3-phosphoglycerate dehydrogenase in human Hela cells lysates assessed as protein enrichment by measuring normalized heavy/light ratio at by nano-LC-ESIMS/MS analysis; assay type: cell-free
[6] = biological target: Elongation factor 1-beta (Homo sapiens) (UniProt P24534); experiment: Binding affinity to elongation factor 1-beta in human Hela cells lysates assessed as protein enrichment by measuring normalized heavy/light ratio at by nano-LC-ESIMS/MS analysis; assay type: cell-free
[7] = biological target: T1, 80S Ribosome (Homo sapiens); experiment: Binding affinity to 60S ribosomal protein L35 in human Hela cells lysates assessed as protein enrichment by measuring normalized heavy/light ratio at by nano-LC-ESIMS/MS analysis; assay type: cell-free
[8] = biological target: Tubulin beta-5 chain (Homo sapiens) (UniProt P07437); experiment: Binding affinity to tubulin beta chain in human Hela cells lysates assessed as protein enrichment by measuring normalized heavy/light ratio at by nano-LC-ESIMS/MS analysis; assay type: cell-free
[9] = biological target: 60 kDa heat shock protein, mitochondrial (Homo sapiens) (UniProt P10809); experiment: Binding affinity to 60 kDa heat shock protein in human Hela cells lysates assessed as protein enrichment by measuring normalized heavy/light ratio at by nano-LC-ESIMS/MS analysis; assay type: cell-free
[10] = biological target: T1, 80S Ribosome (Homo sapiens); experiment: Binding affinity to 60S ribosomal protein L31 in human Hela cells lysates assessed as protein enrichment by measuring normalized heavy/light ratio at by nano-LC-ESIMS/MS analysis; assay type: cell-free
[11] = biological target: Elongation factor 1-delta (Homo sapiens) (UniProt P29692); experiment: Binding affinity to elongation factor 1-delta in human Hela cells lysates assessed as protein enrichment by measuring normalized heavy/light ratio at by nano-LC-ESIMS/MS analysis; assay type: cell-free
[12] = biological target: Tubulin beta-4B chain (Homo sapiens) (UniProt P68371); experiment: Binding affinity to tubulin beta-4B chain in human Hela cells lysates assessed as protein enrichment by measuring normalized heavy/light ratio at by nano-LC-ESIMS/MS analysis
[13] = biological target: T1, 80S Ribosome (Homo sapiens); experiment: Binding affinity to 40S ribosomal protein S5 in human Hela cells lysates assessed as protein enrichment by measuring normalized heavy/light ratio at by nano-LC-ESIMS/MS analysis; assay type: cell-free
Vimentin (Homo sapiens) = Vimentin (Homo sapiens) (UniProt P08670); experiment: Binding affinity to vimentin in human Hela cells lysates assessed as protein enrichment by measuring normalized heavy/light ratio at by nano-LC-ESIMS/MS analysis; assay type: cell-free
[14] = biological target: T1, 80S Ribosome (Homo sapiens); experiment: Binding affinity to 60S ribosomal protein L23a in human Hela cells lysates assessed as protein enrichment by measuring normalized heavy/light ratio at by nano-LC-ESIMS/MS analysis; assay type: cell-free
[15] = biological target: T1, 80S Ribosome (Homo sapiens); experiment: Binding affinity to 40S ribosomal protein S30 in human Hela cells lysates assessed as protein enrichment by measuring normalized heavy/light ratio at by nano-LC-ESIMS/MS analysis; assay type: cell-free
[16] = biological target: Heat shock protein HSP 90-beta (Homo sapiens) (UniProt P08238); experiment: Binding affinity to heat shock protein 90-beta in human Hela cells lysates assessed as protein enrichment by measuring normalized heavy/light ratio at by nano-LC-ESIMS/MS analysis; assay type: cell-free
[17] = biological target: Large ribosomal subunit protein P2 (Homo sapiens) (UniProt P05387); experiment: Binding affinity to 60S acidic ribosomal protein P2 in human Hela cells lysates assessed as protein enrichment by measuring normalized heavy/light ratio at by nano-LC-ESIMS/MS analysis; assay type: cell-free
HeLa = experiment: Inhibition of protein synthesis in human HeLa cells at 50 to 500 uM pre-incubated for 1 hr before L-[35S]-cysteine and L-[35S]-methionine addition and measured after 1 hr by Comassie staining based autoradiography; assay type: functional, cell-based
[18] = biological target: Elongation factor 2 (Homo sapiens) (UniProt P13639); experiment: Binding affinity to elongation factor 2 in human Hela cells lysates assessed as protein enrichment by measuring normalized heavy/light ratio at by nano-LC-ESIMS/MS analysis; assay type: cell-free
[19] = biological target: Heat shock cognate 71 kDa protein (Homo sapiens) (UniProt P11142); experiment: Binding affinity to heat shock cognate 71 kDa protein in human Hela cells lysates assessed as protein enrichment by measuring normalized heavy/light ratio at by nano-LC-ESIMS/MS analysis; assay type: cell-free
[20] = biological target: Putative annexin A2-like protein (Homo sapiens) (UniProt A6NMY6); experiment: Binding affinity to putative annexin A2-like protein in human Hela cells lysates assessed as protein enrichment by measuring normalized heavy/light ratio at by nano-LC-ESIMS/MS analysis; assay type: cell-free
[21] = biological target: Peroxiredoxin-1 (Homo sapiens) (UniProt Q06830); experiment: Binding affinity to peroxiredoxin-1 in human Hela cells lysates assessed as protein enrichment by measuring normalized heavy/light ratio at by nano-LC-ESIMS/MS analysis; assay type: cell-free
[22] = biological target: Tubulin alpha-1B chain (Homo sapiens) (UniProt P68363); experiment: Binding affinity to tubulin alpha-1B chain in human Hela cells lysates assessed as protein enrichment by measuring normalized heavy/light ratio at by nano-LC-ESIMS/MS analysis; assay type: cell-free

Chain of 60 kDa heat shock protein, mitochondrial (Homo sapiens) (P10809 whole entry): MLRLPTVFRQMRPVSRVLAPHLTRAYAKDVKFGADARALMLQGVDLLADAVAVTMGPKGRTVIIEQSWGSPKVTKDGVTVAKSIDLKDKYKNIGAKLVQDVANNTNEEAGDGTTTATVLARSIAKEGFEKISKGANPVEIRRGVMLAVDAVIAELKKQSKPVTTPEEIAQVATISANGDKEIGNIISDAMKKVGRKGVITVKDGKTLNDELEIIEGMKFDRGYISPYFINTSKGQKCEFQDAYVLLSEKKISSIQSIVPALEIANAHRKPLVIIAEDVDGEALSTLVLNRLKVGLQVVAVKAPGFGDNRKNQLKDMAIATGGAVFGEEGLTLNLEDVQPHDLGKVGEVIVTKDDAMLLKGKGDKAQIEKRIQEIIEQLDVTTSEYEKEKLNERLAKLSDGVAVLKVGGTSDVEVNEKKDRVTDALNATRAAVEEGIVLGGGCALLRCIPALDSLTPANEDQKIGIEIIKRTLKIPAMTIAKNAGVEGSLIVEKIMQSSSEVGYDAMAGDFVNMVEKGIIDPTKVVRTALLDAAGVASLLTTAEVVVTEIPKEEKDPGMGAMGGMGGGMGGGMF
Chain of Elongation factor 1-delta (Homo sapiens) (P29692 whole entry): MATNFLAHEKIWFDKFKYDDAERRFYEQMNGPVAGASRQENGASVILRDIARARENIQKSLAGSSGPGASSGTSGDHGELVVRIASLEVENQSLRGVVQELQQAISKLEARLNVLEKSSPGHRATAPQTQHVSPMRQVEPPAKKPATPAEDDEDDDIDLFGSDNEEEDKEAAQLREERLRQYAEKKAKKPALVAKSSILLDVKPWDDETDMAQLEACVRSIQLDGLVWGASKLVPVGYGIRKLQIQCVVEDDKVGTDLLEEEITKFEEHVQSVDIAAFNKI
Chain of Putative annexin A2-like protein (Homo sapiens) (A6NMY6 whole entry): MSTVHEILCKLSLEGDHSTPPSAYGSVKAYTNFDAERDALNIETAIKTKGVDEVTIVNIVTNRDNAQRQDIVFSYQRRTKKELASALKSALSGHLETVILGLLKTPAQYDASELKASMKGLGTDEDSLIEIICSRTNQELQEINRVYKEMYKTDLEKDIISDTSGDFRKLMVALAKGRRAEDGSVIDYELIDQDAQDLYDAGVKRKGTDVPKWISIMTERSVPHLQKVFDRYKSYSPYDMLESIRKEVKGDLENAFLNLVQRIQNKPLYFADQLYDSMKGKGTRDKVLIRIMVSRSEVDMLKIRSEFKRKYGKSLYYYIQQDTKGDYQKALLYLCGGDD
Chain of Tubulin beta-4B chain (Homo sapiens) (P68371 whole entry, looked up): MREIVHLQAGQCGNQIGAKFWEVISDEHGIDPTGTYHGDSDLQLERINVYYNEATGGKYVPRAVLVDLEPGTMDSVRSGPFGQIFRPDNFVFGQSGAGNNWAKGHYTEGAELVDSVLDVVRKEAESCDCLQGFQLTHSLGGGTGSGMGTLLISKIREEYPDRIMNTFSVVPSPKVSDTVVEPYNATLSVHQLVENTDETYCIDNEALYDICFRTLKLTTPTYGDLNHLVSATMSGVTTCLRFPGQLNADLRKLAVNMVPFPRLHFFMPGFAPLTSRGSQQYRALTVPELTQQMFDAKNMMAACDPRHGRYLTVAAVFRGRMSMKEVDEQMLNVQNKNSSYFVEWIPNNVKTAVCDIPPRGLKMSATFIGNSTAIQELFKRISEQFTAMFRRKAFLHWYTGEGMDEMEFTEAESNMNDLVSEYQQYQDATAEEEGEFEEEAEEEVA
Chain of Heat shock protein HSP 90-beta (Homo sapiens) (P08238 whole entry): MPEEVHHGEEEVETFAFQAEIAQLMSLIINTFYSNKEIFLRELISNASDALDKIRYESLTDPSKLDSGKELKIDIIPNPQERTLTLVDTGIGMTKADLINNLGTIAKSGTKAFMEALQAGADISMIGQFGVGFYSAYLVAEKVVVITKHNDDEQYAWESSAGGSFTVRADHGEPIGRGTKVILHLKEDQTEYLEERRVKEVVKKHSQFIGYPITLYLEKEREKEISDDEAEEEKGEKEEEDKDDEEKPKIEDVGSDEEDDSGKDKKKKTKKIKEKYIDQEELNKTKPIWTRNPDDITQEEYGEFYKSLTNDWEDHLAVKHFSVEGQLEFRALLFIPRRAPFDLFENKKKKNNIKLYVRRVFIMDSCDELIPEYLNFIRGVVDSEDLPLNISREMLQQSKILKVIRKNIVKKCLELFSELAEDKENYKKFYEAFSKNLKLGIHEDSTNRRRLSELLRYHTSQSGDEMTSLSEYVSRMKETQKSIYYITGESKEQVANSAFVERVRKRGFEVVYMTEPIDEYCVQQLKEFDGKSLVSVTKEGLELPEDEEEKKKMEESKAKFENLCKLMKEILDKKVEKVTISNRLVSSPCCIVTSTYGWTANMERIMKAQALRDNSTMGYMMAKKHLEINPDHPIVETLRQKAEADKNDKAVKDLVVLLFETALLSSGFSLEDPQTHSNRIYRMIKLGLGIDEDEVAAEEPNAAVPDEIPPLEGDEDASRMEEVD
Chain of Vimentin (Homo sapiens) (P08670 whole entry): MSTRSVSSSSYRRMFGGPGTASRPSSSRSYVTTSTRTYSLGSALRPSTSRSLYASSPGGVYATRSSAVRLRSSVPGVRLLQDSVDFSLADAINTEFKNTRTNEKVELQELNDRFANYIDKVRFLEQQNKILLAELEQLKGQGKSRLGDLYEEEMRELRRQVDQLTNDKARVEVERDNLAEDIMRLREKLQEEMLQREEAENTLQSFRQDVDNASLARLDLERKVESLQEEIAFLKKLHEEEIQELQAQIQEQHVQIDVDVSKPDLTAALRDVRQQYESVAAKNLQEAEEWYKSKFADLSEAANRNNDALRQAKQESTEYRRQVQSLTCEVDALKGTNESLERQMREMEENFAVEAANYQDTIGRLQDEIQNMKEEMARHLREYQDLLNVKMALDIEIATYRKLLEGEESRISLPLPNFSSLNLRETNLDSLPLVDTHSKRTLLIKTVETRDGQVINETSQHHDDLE
Chain of Heat shock cognate 71 kDa protein (Homo sapiens) (P11142 2-646 limits assumed): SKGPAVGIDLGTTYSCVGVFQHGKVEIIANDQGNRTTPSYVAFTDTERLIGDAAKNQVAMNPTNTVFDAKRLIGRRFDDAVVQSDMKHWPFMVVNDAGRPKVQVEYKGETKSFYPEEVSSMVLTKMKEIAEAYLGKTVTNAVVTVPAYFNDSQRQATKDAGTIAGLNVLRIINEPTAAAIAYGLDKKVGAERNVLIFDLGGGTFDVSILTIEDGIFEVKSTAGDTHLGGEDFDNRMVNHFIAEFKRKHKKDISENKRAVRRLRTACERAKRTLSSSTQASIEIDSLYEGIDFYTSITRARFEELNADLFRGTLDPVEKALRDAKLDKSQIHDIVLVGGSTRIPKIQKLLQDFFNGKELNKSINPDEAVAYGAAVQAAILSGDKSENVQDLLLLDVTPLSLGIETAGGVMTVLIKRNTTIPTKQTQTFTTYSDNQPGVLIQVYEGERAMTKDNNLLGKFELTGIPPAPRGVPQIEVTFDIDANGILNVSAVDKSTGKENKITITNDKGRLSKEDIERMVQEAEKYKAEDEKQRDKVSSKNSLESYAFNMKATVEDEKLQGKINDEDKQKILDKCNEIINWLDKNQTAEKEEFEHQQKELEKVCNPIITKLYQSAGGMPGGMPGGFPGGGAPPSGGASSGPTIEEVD
Chain of Elongation factor 1-beta (Homo sapiens) (P24534 whole entry): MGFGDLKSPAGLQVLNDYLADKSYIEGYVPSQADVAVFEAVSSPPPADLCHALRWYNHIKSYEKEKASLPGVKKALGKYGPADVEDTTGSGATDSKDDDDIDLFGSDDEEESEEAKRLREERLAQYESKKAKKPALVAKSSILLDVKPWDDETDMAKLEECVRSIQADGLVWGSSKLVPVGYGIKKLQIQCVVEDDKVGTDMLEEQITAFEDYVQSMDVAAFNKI
Chain of Stress-70 protein, mitochondrial (Homo sapiens) (P38646 whole entry): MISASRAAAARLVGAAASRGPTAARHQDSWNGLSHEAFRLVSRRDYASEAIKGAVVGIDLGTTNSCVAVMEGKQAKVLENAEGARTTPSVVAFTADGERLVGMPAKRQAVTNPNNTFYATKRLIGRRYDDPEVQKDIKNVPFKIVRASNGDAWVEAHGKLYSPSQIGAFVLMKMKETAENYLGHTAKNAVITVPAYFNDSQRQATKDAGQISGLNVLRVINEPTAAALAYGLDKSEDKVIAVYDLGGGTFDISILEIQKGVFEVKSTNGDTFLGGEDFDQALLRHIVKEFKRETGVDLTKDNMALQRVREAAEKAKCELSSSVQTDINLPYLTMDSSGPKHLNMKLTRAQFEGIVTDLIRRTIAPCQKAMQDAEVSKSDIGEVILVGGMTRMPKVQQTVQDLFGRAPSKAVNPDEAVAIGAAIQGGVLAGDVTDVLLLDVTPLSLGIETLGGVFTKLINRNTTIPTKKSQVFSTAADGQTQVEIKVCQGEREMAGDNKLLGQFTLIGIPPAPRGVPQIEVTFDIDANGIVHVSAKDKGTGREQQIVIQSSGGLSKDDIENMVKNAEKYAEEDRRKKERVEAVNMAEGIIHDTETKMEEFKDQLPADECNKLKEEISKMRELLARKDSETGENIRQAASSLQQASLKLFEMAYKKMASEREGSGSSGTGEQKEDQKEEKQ
Chain of Peroxiredoxin-1 (Homo sapiens) (Q06830 whole entry): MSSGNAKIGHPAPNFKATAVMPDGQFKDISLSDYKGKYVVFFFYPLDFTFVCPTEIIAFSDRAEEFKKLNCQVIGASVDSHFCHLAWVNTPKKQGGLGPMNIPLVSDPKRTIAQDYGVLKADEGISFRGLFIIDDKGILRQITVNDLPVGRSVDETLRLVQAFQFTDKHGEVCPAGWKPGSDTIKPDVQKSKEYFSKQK
Chain of Poly(rC)-binding protein 2 (Homo sapiens) (Q15366 whole entry): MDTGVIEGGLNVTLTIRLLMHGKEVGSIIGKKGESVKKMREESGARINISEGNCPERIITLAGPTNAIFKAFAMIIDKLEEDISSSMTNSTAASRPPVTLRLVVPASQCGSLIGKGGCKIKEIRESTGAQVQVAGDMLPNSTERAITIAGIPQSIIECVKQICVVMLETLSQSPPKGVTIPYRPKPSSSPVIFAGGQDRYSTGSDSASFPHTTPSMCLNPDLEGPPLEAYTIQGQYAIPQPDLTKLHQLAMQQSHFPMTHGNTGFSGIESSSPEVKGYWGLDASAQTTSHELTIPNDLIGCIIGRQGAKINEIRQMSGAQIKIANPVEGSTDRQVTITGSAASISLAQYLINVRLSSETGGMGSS

C/C=C(\C)C(=O)O[C@H]1[C@H](O)[C@]2(COC(C)=O)[C@@H](O)C[C@]3(C)C(=CC[C@@H]4[C@@]5(C)CC[C@H](O[C@@H]6O[C@H](C(=O)O)[C@@H](O)[C@H](O)[C@H]6O)[C@@](C)(CO)[C@@H]5CC[C@]43C)[C@@H]2CC1(C)C was tested, and the Ratio [1] was 0.119, the Activity [2] was “Active” and the Ratio (Trypsin (Homo sapiens)) was 1. The Ratio [3] was 0.751, the Ratio [4] was 0.633 and the Ratio [5] was 0.509. It also gave a Ratio [6] of 0.525, a Ratio [7] of 0.062 and a Ratio [8] of 0.52. For the same molecule, the Ratio [9] was 0.57, the Ratio [10] was 0.439 and the Ratio [11] was 0.622. The Ratio [12] was 0.423, the Ratio [13] was 0.255 and the Ratio (Vimentin (Homo sapiens)) was 0.817. For the same molecule, the Ratio [14] was 0.313, the Ratio [15] was 0.075 and the Ratio [16] was 0.737. The Ratio [17] was 0.329, the inhibition (HeLa) was “Dose-dependent effect” and the Ratio [18] was 0.688. It also gave a Ratio [19] of 0.615, a Ratio [20] of 0.988 and a Ratio [21] of 1.06. For the same molecule, the Ratio [22] was 0.523.

— ChEMBL document CHEMBL4270485, “Determination of Gymnemic Acid I as a Protein Biosynthesis Inhibitor Using Chemical Proteomics” (J Nat Prod, 2017)
